{"source": "patent US20110262508A1", "about": "“ANTIMICROBIAL COMPOSITIONS, FORMULATIONS AND USES THEREOF” (priority 2007, published 2011)", "key": {"[1]": {"test_system": "A. baumannii ATCC 19606, Acinetobacter spp. ATCC 17903, Acinetobacter spp. ATCC 19004, E. coli BL21, S. aureus, S. typhimurium AroA, P. aeruginosa, P. …", "assay": "Antibacterial spectrum over the serial dilution panel (Table 6)", "type": "cell-based", "details": "summary of Table 6", "description": "Synthetic peptides were tested for their ability to inhibit bacterial growth in liquid culture. The peptides were added at a concentration of between about 5 μM and about 10 μM to individual wells of 96-deep-well dishes that contained liquid growth media freshly inoculated with one of the following bacteria: A. baumannii ATCC Accession No. 19606, Acinetobacter spp. ATCC 17903, Acinetobacter spp. ATCC 19004, Escherichia coli strain BL21, S. aureus, S. typhimurium strain AroA, P. aeruginosa or P. pneumotropica. After 5-6 hours of shaking at 37° C., growth was measured as absorbance at 595 nm. As a control, cultures were grown in the presence of 0.1% acetonitrile (i.e., the concentration present in 10 μM peptide)."}, "A. baumannii": {"test_system": "A. baumannii", "type": "cell-based", "excerpt": "Broth dilution methods are e.g., described by Lorian (2007) In: Antibiotics in Laboratory Medicine, Fifth Edition; and In: Clinical and Laboratory Standards Institute, CLSI (formerly NCCLS), In: Methods for Dilution Antimicrobial Susceptibility Tests for Bacteria that Grow Aerobically—Approved Standard—Seventh Edition, CLSI document M7-A7, Villanova, Pa. (NCCLS; January 2006; Vol. 26 No. 2); and In: Clinical and Laboratory Standards Institute, CLSI (formerly NCCLS), Performance Standards for Antimicrobial Susceptibility Testing, Seventeenth Informational Supplement, M100-S17, Vol 27 No. 1 January 2007, all of which are incorporated herein by reference.\nThe present inventors used such methods to quantitate activity in vitro of antimicrobial peptides of the invention against bacterial isolates, including laboratory strains and 50 clinical isolates of A. baumannii, and S. aureus ATCC Accession No. 2992. Briefly, small volumes of broth are dispensed in sterile, plastic microtiter trays, and 100 μl of serially-diluted antimicrobial peptide (0.1-64 μg) and 100 μl test organism (approximately 1×10^5 C.F.U.), are added. Following aerobic incubation overnight at 35±2° C. Control samples lacked peptide (Growth control), or lacked peptide and bacteria (Sterility control). The trays were examined visually and the minimal inhibitory concentration (MIC) of peptide required to inhibit bacterial growth were determined. The minimum bactericidal concentration (MBC) was estimated by sub-culturing the wells for which no bacterial growth was visible to the naked eye, to thereby determine a concentration of antimicrobial that reduces the original inoculum by at least about 99.9%."}}, "note": "Read-outs that look alike come from different tables or passages of the source. Square brackets hold non-standard residues; d marks the D form. Peptide text beside a SMILES is read from it."}
{"smiles": "CSCC[C@H](NC(=O)[C@H](CCCNC(=N)N)NC(=O)[C@H](CO)NC(=O)[C@H](CCCNC(=N)N)NC(=O)[C@H](CCCNC(=N)N)NC(=O)[C@H](CC(N)=O)NC(=O)[C@H](Cc1c[nH]cn1)NC(=O)[C@@H]1CCCN1C(=O)[C@H](Cc1c[nH]cn1)NC(=O)[C@@H]1CCCN1C(=O)[C@H](Cc1c[nH]cn1)NC(=O)[C@@H](NC(=O)[C@H](CCC(N)=O)NC(=O)[C@@H](NC(=O)[C@H](Cc1ccc(O)cc1)NC(=O)[C@H](Cc1c[nH]cn1)NC(=O)[C@H](Cc1c[nH]cn1)NC(=O)[C@H](Cc1c[nH]cn1)NC(=O)[C@@H](N)Cc1c[nH]c2ccccc12)[C@@H](C)O)[C@@H](C)O)C(=O)N[C@@H](CO)C(=O)N[C@@H](CCCNC(=N)N)C(=O)N[C@@H](C)C(=O)N[C@@H](CCCNC(=N)N)C(=O)O", "note": "[Ac56] (H-WHHHYTQTHPHPHNRRSRMSRAR-OH; N-terminus and C-terminus assumed)", "values": [{"measurement": "selectively inhibited growth of S. aureus", "setting": "[1]", "value": "selectively inhibited growth"}]}
{"smiles": "CC[C@H](C)[C@H](NC(=O)[C@H](CC(C)C)NC(=O)[C@H](CCCNC(=N)N)NC(=O)[C@@H](NC(=O)[C@@H](NC(=O)[C@H](Cc1ccc(O)cc1)NC(=O)[C@H](CCCCN)NC(=O)[C@@H](N)Cc1ccc(O)cc1)[C@@H](C)CC)[C@@H](C)CC)C(=O)N[C@@H](CCC(=O)O)C(=O)N[C@@H](CC(N)=O)C(=O)N[C@@H](Cc1c[nH]c2ccccc12)C(=O)NCC(=O)N[C@@H](CCC(=O)O)C(=O)N[C@@H](CO)C(=O)NCC(=O)N[C@@H](CO)C(=O)N[C@@H](CCCNC(=N)N)C(=O)N[C@@H](Cc1ccc(O)cc1)C(=O)N[C@@H](CO)C(=O)N[C@@H](CCCNC(=N)N)C(=O)N[C@H](C(=O)N[C@H](C(=O)N[C@@H](CCCNC(=N)N)C(=O)O)C(C)C)[C@@H](C)CC", "note": "[Ac19] (H-YKYIIRLIENWGESGSRYSRIVR-OH)", "values": [{"measurement": "selectively inhibited growth of A. baumannii ATCC Accession No. 19606, Acinetobacter spp. ATCC 17903, Acinetobacter spp. ATCC 19004, and S. aureus", "setting": "[1]", "value": "selectively inhibited growth"}]}
{"smiles": "CC(C)C[C@H](NC(=O)[C@H](CCCCN)NC(=O)[C@H](CCCNC(=N)N)NC(=O)[C@H](CC(C)C)NC(=O)[C@H](CCC(=O)O)NC(=O)[C@H](CCC(=O)O)NC(=O)[C@H](Cc1ccc(O)cc1)NC(=O)[C@H](CCC(N)=O)NC(=O)[C@H](C)NC(=O)CN)C(=O)N[C@@H](CO)C(=O)N[C@@H](CCCCN)C(=O)NCC(=O)N[C@@H](CC(=O)O)C(=O)N[C@@H](Cc1c[nH]cn1)C(=O)N[C@@H](CC(C)C)C(=O)N[C@H](C(=O)N[C@@H](CCCCN)C(=O)N[C@@H](CC(C)C)C(=O)N[C@@H](CCCCN)C(=O)N[C@H](C(=O)N[C@@H](CO)C(=O)N1CCC[C@H]1C(=O)O)[C@@H](C)O)C(C)C", "note": "[Ac98] (H-GAQYEELRKLSKGDHLVKLKTSP-OH; N-terminus and C-terminus assumed)", "values": [{"measurement": "selectively inhibited growth of S. aureus", "setting": "[1]", "value": "selectively inhibited growth"}]}
{"smiles": "CSCC[C@H](NC(=O)[C@H](CC(C)C)NC(=O)[C@H](CCCCN)NC(=O)[C@H](CCCCN)NC(=O)[C@@H](NC(=O)[C@@H](NC(=O)[C@H](C)NC(=O)[C@H](Cc1ccccc1)NC(=O)[C@H](Cc1ccc(O)cc1)NC(=O)CNC(=O)[C@H](CS)NC(=O)[C@H](Cc1c[nH]cn1)NC(=O)[C@@H]1CCCN1C(=O)CNC(=O)CN)[C@@H](C)O)[C@@H](C)O)C(=O)N[C@@H](CCCNC(=N)N)C(=O)N[C@@H](CCCCN)C(=O)N[C@H](C(=O)N1CCC[C@H]1C(=O)NCC(=O)N[C@@H](CCCNC(=N)N)C(=O)N[C@@H](CC(C)C)C(=O)N[C@H](C(=O)O)C(C)C)C(C)C", "note": "[Ac330] (H-GGPHCGYFATTKKLMRKVPGRLV-OH; N-terminus and C-terminus assumed)", "values": [{"measurement": "MIC", "setting": "A. baumannii; A. baumannii (Table 8)", "value": 20, "unit": "µM"}, {"measurement": "MBC", "setting": "A. baumannii; A. baumannii (Table 8), reduces original inoculum by at least about 99.9%", "value": 40, "unit": "µM"}, {"measurement": "MIC (μM) for non-amidated Peptide", "setting": "A. baumannii; non-amidated peptide, strongly inhibitory against A. baumannii (Table 7)", "value": 20, "unit": "µM"}]}
{"smiles": "CC[C@H](C)[C@H](NC(=O)[C@H](CCC(N)=O)NC(=O)[C@H](CCCNC(=N)N)NC(=O)[C@H](CS)NC(=O)[C@@H](NC(=O)[C@H](CCCNC(=N)N)NC(=O)[C@H](CCCNC(=N)N)NC(=O)[C@H](CC(C)C)NC(=O)[C@H](CC(=O)O)NC(=O)[C@H](CCC(=O)O)NC(=O)[C@H](CCCNC(=N)N)NC(=O)[C@H](CC(C)C)NC(=O)[C@H](CCCNC(=N)N)NC(=O)CNC(=O)[C@H](CO)NC(=O)[C@H](Cc1ccccc1)NC(=O)[C@@H](NC(=O)[C@H](CC(C)C)NC(=O)[C@@H](NC(=O)CN)C(C)C)[C@@H](C)O)[C@@H](C)CC)C(=O)N[C@@H](CO)C(=O)N[C@@H](C)C(=O)N[C@@H](Cc1ccc(O)cc1)C(=O)O", "note": "[Ac339] (H-GVLTFSGRLREDLRRICRQISAY-OH; N-terminus and C-terminus assumed)", "values": [{"measurement": "MBC", "setting": "A. baumannii", "value": 40, "unit": "µM"}, {"measurement": "MIC", "setting": "A. baumannii", "value": 20, "unit": "µM"}, {"measurement": "MIC (μM) for non-amidated Peptide", "setting": "A. baumannii", "value": 20, "unit": "µM"}]}
{"smiles": "CC[C@H](C)[C@H](NC(=O)[C@H](CCC(N)=O)NC(=O)[C@H](CCCNC(=N)N)NC(=O)[C@H](CS)NC(=O)[C@@H](NC(=O)[C@H](CCCNC(=N)N)NC(=O)[C@H](CCCNC(=N)N)NC(=O)[C@H](CC(C)C)NC(=O)[C@H](CC(=O)O)NC(=O)[C@H](CCC(=O)O)NC(=O)[C@H](CCCNC(=N)N)NC(=O)[C@H](CC(C)C)NC(=O)[C@H](CCCNC(=N)N)NC(=O)CNC(=O)[C@@H](N)CO)[C@@H](C)CC)C(=O)N[C@@H](CO)C(=O)N[C@@H](C)C(=O)N[C@@H](Cc1ccc(O)cc1)C(=O)N[C@@H](CCCCN)C(=O)N[C@@H](CO)C(=O)N[C@@H](CC(=O)O)C(=O)N[C@@H](CO)C(=O)N[C@@H](CO)C(=O)O", "note": "[Ac340] (H-SGRLREDLRRICRQISAYKSDSS-OH; N-terminus and C-terminus assumed)", "values": [{"measurement": "MBC", "setting": "A. baumannii", "value": 40, "unit": "µM"}, {"measurement": "MIC", "setting": "A. baumannii", "value": 40, "unit": "µM"}]}
{"smiles": "CC[C@H](C)[C@H](NC(=O)[C@H](Cc1c[nH]c2ccccc12)NC(=O)[C@H](CCCNC(=N)N)NC(=O)[C@@H](N)CO)C(=O)N[C@@H](CS)C(=O)N[C@@H](CO)C(=O)N[C@@H](CCSC)C(=O)N[C@@H](C)C(=O)N[C@@H](CCCNC(=N)N)C(=O)N[C@@H](CCCNC(=N)N)C(=O)N[C@@H](CO)C(=O)N[C@@H](CCCNC(=N)N)C(=O)N[C@@H](CCCNC(=N)N)C(=O)N[C@@H](CCCNC(=N)N)C(=O)N[C@@H](CCCNC(=N)N)C(=O)N1CCC[C@H]1C(=O)NCC(=O)N[C@@H](CCCNC(=N)N)C(=O)N[C@@H](CO)C(=O)N[C@H](C(=O)N[C@@H](CCCNC(=N)N)C(=O)N[C@@H](CO)C(=O)N[C@@H](Cc1c[nH]c2ccccc12)C(=O)O)[C@@H](C)O", "note": "[Ac390] (H-SRWICSMARRSRRRRPGRSTRSW-OH; N-terminus and C-terminus assumed)", "values": [{"measurement": "MBC", "setting": "A. baumannii", "value": 40, "unit": "µM"}, {"measurement": "MIC", "setting": "A. baumannii", "value": 40, "unit": "µM"}]}
{"smiles": "CC(C)C[C@H](NC(=O)CNC(=O)[C@H](CS)NC(=O)[C@H](CO)NC(=O)CNC(=O)[C@H](CCCNC(=N)N)NC(=O)[C@H](CS)NC(=O)[C@H](CCCCN)NC(=O)[C@H](CO)NC(=O)[C@H](CC(C)C)NC(=O)[C@@H](NC(=O)[C@H](CC(N)=O)NC(=O)[C@H](CS)NC(=O)[C@H](C)NC(=O)[C@H](CCCNC(=N)N)NC(=O)[C@@H](N)Cc1c[nH]c2ccccc12)[C@@H](C)O)C(=O)N[C@@H](CCCNC(=N)N)C(=O)N[C@H](C(=O)N[C@@H](Cc1c[nH]c2ccccc12)C(=O)N[C@@H](C)C(=O)NCC(=O)N[C@@H](CCCNC(=N)N)C(=O)NCC(=O)O)C(C)C", "note": "[Ac380] (H-WRACNTLSKCRGSCGLRVWAGRG-OH; N-terminus and C-terminus assumed)", "values": [{"measurement": "MIC", "setting": "A. baumannii", "value": 40, "unit": "µM"}]}
{"smiles": "CC(C)C[C@@H](NC(=O)[C@@H](CCCNC(=N)N)NC(=O)[C@H](N)Cc1ccc(O)cc1)C(=O)N[C@H](CC(C)C)C(=O)N[C@H](CCCNC(=N)N)C(=O)N[C@H](CCCCN)C(=O)N[C@@H](C(=O)N[C@@H](C(=O)N[C@H](Cc1ccccc1)C(=O)N[C@H](CS)C(=O)N[C@H](CC(C)C)C(=O)N[C@H](CCCCN)C(=O)N[C@@H](C(=O)N[C@H](CO)C(=O)N[C@H](CC(C)C)C(=O)N[C@@H](C(=O)N[C@H](CCCCN)C(=O)N1CCC[C@@H]1C(=O)N[C@H](Cc1ccccc1)C(=O)N[C@H](Cc1c[nH]cn1)C(=O)N[C@H](Cc1ccccc1)C(=O)N[C@H](Cc1ccc(O)cc1)C(=O)N1CCC[C@@H]1C(=O)O)[C@H](C)O)[C@H](C)O)[C@H](C)O)[C@H](C)O", "note": "[Ac5r] (H-[dY][dR][dL][dL][dR][dK][dT][dT][dF][dC][dL][dK][dT][dS][dL][dT][dK][dP][dF][dH][dF][dY][dP]-OH; N-terminus and C-terminus assumed)", "values": [{"measurement": "MIC (μM) for amidated peptide", "setting": "A. baumannii", "value": 5, "unit": "µM"}, {"measurement": "MIC (μM) for non-amidated Peptide", "setting": "A. baumannii", "value": 15, "unit": "µM"}]}
